# According to publication PMC8692993, “PPARα and PPARγ activation is associated with pleural mesothelioma invasion but therapeutic inhibition is ineffective” (iScience, 2021):
# Experiments:
# [1] = system: head and neck paraganglioma; parameters: method as in Florio et al., 2017; conditions: 24 μM, by cell-cycle arrest and caspase-dependent apoptosis; ref Florio et al., 2017; cited from earlier work
# [2] = system: HAP1, HAP1 PPARA KO, and HAP1 PPARG KO cell lines; assay: Scratch wound migration assay, HAP1 lines; assay type: cell-based, human; conditions: 1 and 10 μM
# Method: Cells were harvested and seeded in Incucyte®ImageLock 96-well plates (Essen BioScience) at a density of 10 x 10^4 cells/mL overnight. A scratch wound was performed on the confluent cells with the 96-pin IncuCyte WoundMaker Tool (Essen BioScience). For migration assays, cells were washed with PBS once before adding 100 μL media with GW6471 at indicated concentrations. For matrigel invasion assays, cells were washed with PBS once before adding 50 μL of matrigel basement membrane matrix (FAL356231; Corning, NY, USA) at 8 mg/mL; lastly 100 μL media with GW6471 at indicated concentrations were added on top of the matrigel. Wounded cells were incubated in the IncuCyte ZOOM® at 37°C with 5% CO2. Data were analysed using the Incucyte® Scratch Wound Cell Migration Software Module and calculating the Relative Wound Density (%) (RWD) for both migration and invasion assays.
# [3] = system: HAP1, HAP1 PPARA KO, and HAP1 PPARG KO cell lines; assay: MTT cell metabolic activity assay, HAP1 lines; assay type: cell-based, human
# Method: (§1) Cells were harvested and seeded in 96-flat well plates (Corning) at a density of 5 x 10^4 cells/mL overnight. Media was removed and 100 μL media with GW6471 or GW9662 at indicated concentrations was added to each well. Cell viability and toxicity were measured at 48 h. Cells were incubated with 50 μL of a 2 mg/mL solution of (3-(4,5-dimethyl-thiazole-2-yl)-2,5-[…] tetrazolium (MTT, Sigma-Aldrich) in PBS for 4 h and then exposed to 100 μL dimethyl sulfoxide (DMSO; Sigma-Aldrich). Cell viability was measured by absorption at 570 nm in a microplate spectrophotometer (Spectromax 250 plate reader). Results are shown as relative cell viability.
# [4] = Protein binding by rapid equilibrium dialysis, reporter assay media; assay type: in vitro ADME; conditions: DMEM/F-12 with 5% dextran-coated charcoal-stripped FCS, mean ± SD, n=3
# Method: Protein binding was determined via rapid equilibrium dialysis (RED) with incorporation of a pre-saturation step ([Charman et al., 2020]). The pre-incubation process involved RED system being exposed to fresh aqueous solutions of GW6471 (400 nM) for three periods (including one overnight). For the protein binding determination, GW6471 was spiked into the diluted mouse plasma (10% (v/v); in PBS) or DMEM/F-12 media containing 5% dextran-coated charcoal-stripped FCS (at 2000 nM) and dialysed against protein-free PBS (for plasma) or base media (DMEM/F-12) containing GW6471 at 40 nM for 24 h at 37°C under ambient atmosphere on a plate shaker. Concentrations of GW6471 in dialysate and donor samples collected at the end of the dialysis period were determined via LC–MS.
# Compound binding was assessed on the basis of the measured concentrations in dialysate and donor samples at the end of the dialysis period.
# Based on the post-dialysis measured concentrations in donor (Ctotal_post_dialysis) and dialysate (Cunbound) for each RED unit, the unbound fraction of compound in assay matrix (fu_diluted) was calculated according to Equation 1 below:(Equation 1) fu=Cunbound/Ctotal_post−dialysis
# For media, the value for fu calculated according to Equation 1 above was used without further correction. […]
# [5] = system: angiopoietin-like 4 (Angptl4); assay: Angptl4 immunohistochemistry of treated tumors; assay type: in vivo, BALB/c mice; conditions: GW6471- versus vehicle-treated tumors
# Method: Tissues were fixed with 4% paraformaldehyde for 48–72 h and embedded in paraffin. 5 μm sections were cut by microtome (Thermo Fisher Scientific) and placed on Slide SuperFrost Plus White 1 mm (Thermo Fisher Scientific). Slides were deparaffinised as previously explained for hematoxylin and eosin staining. Antigen retrieval was performed with 10 mM citrate, pH6, at high pressure in a pressure cooker for 15 min and 5 min slow release. Sections were rinsed twice with TBST buffer (Tris-Buffer Saline with Tween, 20 mM Tris, 500 mM NaCl, and 0.05% Tween 20) for 5 min under agitation. Quench tissue peroxidase H2O2 was performed for 10 min at room temperature with 3% H2O2 in distilled H2O. The Vectastain® ABC kit, peroxidase (Rabbit IgG) (Vector Laboratories) was used for the following steps. Non-specific binding was performed with 1.5% Normal goat serum in PBS for 20 min at room temperature. Primary antibody Angptl4 (1:50) (409800, Invitrogen), was diluted in PBS/1.5% goat serum and incubated 1 h at room temperature. The secondary biotinylated anti-Rabbit IgG (1:200) (Vector Laboratories), was diluted in PBS and incubated for 30 min at room temperature. Vectastain ABC reagent (Vector Laboratories) was used as per manufacturer's instructions, mixing Reagent A with Reagent B (1:1) and incubating at room temperature 30 min prior use. […]
# renal cell carcinoma = system: renal cell carcinoma; parameters: method as in Abu Aboud et al., 2015; conditions: 25 μM; ref Abu Aboud et al., 2015; cited from earlier work
# VGE62 = assay: MTT cell metabolic activity assay, VGE62; assay type: cell-based, human; conditions: VGE62, 48 h, 0.391-100 μM; effect at higher micromolar concentrations
# Method: as §1
# AB1 = assay: MTT cell metabolic activity assay, AB1; assay type: cell-based, mouse; conditions: AB1, 48 h, 0.391-100 μM; effect at higher micromolar concentrations
# Method: as §1
structure (smiles),measurement,setting,value
CCC(=O)NC[C@H](Cc1ccc(OCCc2nc(-c3ccccc3)oc2C)cc1)N/C(C)=C\C(=O)c1ccc(C(F)(F)F)cc1 [GW6471],Cell viability and growth,[1],reduced cell viability and growth
same,"Effect on migration compared between PPARA KO, PPARG KO and wild-type cells",[2],not significantly different
same,In vitro migration,[2]; HAP1 lines,concentration-dependent effect on in vitro migration
same,Cellular proliferation (MTT),"[3]; HAP1, HAP1 PPARA KO, HAP1 PPARG KO, 0.391-100 μM",inhibited cellular proliferation at micromolar concentrations
same,Growth inhibition compared between parental and PPARA/PPARG KO cells,[3]; HAP1 versus HAP1 PPARA KO and HAP1 PPARG KO,identical
same,Fraction unbound (fu),[4],0.0037 ± 0.0006
same,Angptl4 staining in tumors,[5],decreased staining of Angptl4
same,Cell-cycle arrest and apoptosis,renal cell carcinoma,significant cell-cycle arrest and apoptosis
same,Cell viability (MTT),VGE62,lowered viability
same,Cell viability (MTT),AB1,lowered viability
